According to patent US20130165368A1, “ANTIMICROBIAL COMPOUNDS” (priority 2010, published 2013):
≈ marks a conversion by molar mass, not a printed value. Like-named read-outs stand apart in the source and are kept apart here.

Assays:
Type in all cases: cell-based
Listeria monocytogenes = assay: MIC agar dilution, micro-organism 15 (11994); conditions: Listeria monocytogenes 11994
Summary of the method: (§1)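 Twofold dilutions of compound emulsions in water were set in Isosensitest agar with Brazier's CCEY medium, egg yolk and lysed horse blood. Spots of 1 µL from 0.5 McFarland suspensions diluted 1/15 were incubated aerobically at 37 °C and read at 22 and 48 h. MIC (mmol/L) was the lowest concentration giving <10 colonies.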

[1] = system: Staphylococcus aureus (MRSA); assay: MIC agar dilution, micro-organism 12 (11939); conditions: Staphylococcus aureus (MRSA) 11939
Summary of the method: as §1

[2] = system: Gram negative bacteria, Gram positive bacteria and pathogenic yeasts; assay: MIC agar dilution, summary statements over the micro-organisms tested (Tables I, IX)
From the text: For a better understanding, the present invention will now be more particularly described, by way of non-limiting example only, as follows. The micro-organisms shown in Table I overleaf were acquired from the National Collection of Type Cultures (NCTC), Colindale, United Kingdom; the American Type Culture Collection (ATCC), Manassas, United States and the National Collection of Pathogenic Fungi (NCPF), Colindale, United Kingdom. They include Gram negative bacteria, Gram positive bacteria and pathogenic yeasts.
Throughout the period of testing the microbial strains were subcultured and incubated for 18-20 hours at 37° C. on a weekly basis. Horse blood agar plates were used to sustain the micro-organisms both prior to and throughout testing. The alkoxylated alkanols listed in Table II below were obtained (these are obtainable from Sigma-Aldrich Company Ltd, Dorset, England), each having a GC purity of at least 97%.
(§2) Molar equivalent concentrations were used to allow comparison between compounds of differing molecular mass. Due to weighing difficulties, any compound in solid form was melted in a water bath prior to dilution. To make ten-times strength concentrations, which takes into account agar dilution, 0.0352 mmol of each compound was weighed into plastic universal bottles and 4 mL of sterile distilled water (SDW) was added. To produce a homogenous emulsion the universals were vortexed; once achieved the emulsions were serial diluted by adding 2 mL to 2 mL of SDW.
Myristyl alcohol and lauryl alcohol were re-weighed and dissolved in 25 μL of the polar solvent 1-methyl-2-pyrrolidone (M6762; Sigma-Aldrich) in sterile glass universals due to an inability to achieve an even suspension. To maintain an even emulsion in the presence of SDW 37.5 μL of the non-ionic detergent Tween 20 (P1379, Sigma-Aldrich) was also added. 3.9375 mL of SDW was added to these, to create a 4 mL volume; they were vortexed and diluted as before.
(§3) For every 100 mL of Isosensitest agar (IST) (CM0471; Oxoid, Basingstoke, England), 3.1 g of the IST powder was added to 100 mL SDW (as per manufacturer's instructions) and sterilised for 15 minutes at 121° C. Once sterilised, the molten agar was cooled to 50° C. in a water-bath. Subsequently 4.8 g of CCEY powder (BC2160; Bioconnections, Wetherby, England), also known as Brazier's medium, was added to 100 mL SDW for every 100 mL of agar needed. This was then sterilised for 15 minutes at 121° C. Once sterilised the molten agar was cooled to 50° C. in a water-bath and 4 mL of egg-yolk emulsion (S2073; TCS Biosciences Ltd, Buckingham, United Kingdom) and 1 mL of lysed defibrinated horse blood (HB035; TCS Biosciences Ltd, Buckingham, United Kingdom) were also added for every 100 mL needed. Horse blood lysis is achieved by dilution to half concentration with SDW; when fully lysed the mixture will turn dark red in colour.
(§4) 18 mL agar was added to each universal and then poured into sterile Petri dishes. This step creates a 1/10 dilution resulting in agar plates of the required strength. Control plates for each set of strains were created by adding 18 mL of agar to 2 mL of SDW.
(§5) Suspensions of each bacterial species were prepared with a density equal to that of a 0.5 McFarland standard using a densitometer. All suspensions were made using sterile distilled water and fresh 18-20 hour cultures. As a 0.5 McFarland standard contains 1.5×10^8 CFU/mL and the multipoint inoculators applies 1 μL spots of liquid, each bacterial suspension was diluted 1/15 (20 μL suspension to 280 μL sterile distilled water).
Bacterial suspensions were prepared from fresh 18-24 hour cultures as previously described. 1 μL of each strain was inoculated onto all 100 agar plates containing a different chemical concentration and the 2 control plates. This was done using a multipoint inoculator which inoculates 20 strains per plate. All plates were incubated for 22 hours at 37° C. in aerobic conditions. […]

MRSA FIN 54518 (E7) = assay: MIC agar dilution, MRSA strain 31; conditions: Staphylococcus aureus
Experimental: as §2, §3, §4, §5
(§6) Bacterial suspensions were prepared from fresh 18-24 hour cultures as previously described. 1 μL of each strain was inoculated onto all 100 agar plates containing a different chemical concentration and the 2 control plates. This was done using a multipoint inoculator which inoculates 20 strains per plate. All plates were incubated for 22 hours at 37° C. in aerobic conditions.
(§7) Each plate was examined for bacterial growth after 22 and 48 hours, with each being incubated in between examinations. A positive result was recorded as growth of ≧10 colonies. A negative result was recorded as growth of <10 colonies as this is equivalent to 99.9% inhibition. The lowest concentration of chemical that inhibited growth was recorded as the MIC. The results are recorded in Table IV below, where the numbers are quoted in mmol/L.
(§8) Given the positive performance of the ethoxylates of lauryl alcohol in reducing the MIC for a number of the micro-organisms tested, further MIC testing of Laureth-1 [C12E1] through to Laureth-8 [C12E8] was conducted on each of the following: • 10 strains of vancomycin-resistant enterococci (VRE)—listed in Table V below; and • 20 strains of methicillin-resistant Staphylococcus aureus (MRSA)—listed in Table VI.
(§9) The alkanol, alkanol derivatives, agar plates, and inocula were all prepared in the same way as described above.
(§10) The plates were examined in the same manner as described above and the results are recorded in Table VII below, where the numbers are quoted in mmol/L.

MRSA EMRSA 15 1758/98 = assay: MIC agar dilution, MRSA strain 43; conditions: Staphylococcus aureus
Experimental: as §2, §3, §4, §5, §6, §7, §8, §9, §10

[3] = system: Enterococcus faecium (VRE) 255693 N. Tyneside; assay: MIC agar dilution, VRE strain 22
Experimental: as §2, §3, §4, §5, §6, §7, §8, §9, §10

MRSA EMRSA 15 1729/98 = assay: MIC agar dilution, MRSA strain 42; conditions: Staphylococcus aureus
Experimental: as §2, §3, §4, §5, §6, §7, §8, §9, §10

MRSA NCTC 11939 = assay: MIC agar dilution, MRSA strain 50; conditions: Staphylococcus aureus, MRSA strain 50 NCTC 11939
Experimental: as §2, §3, §4, §5, §6, §7, §8, §9, §10

[4] = system: Enterococcus faecium (VRE) MB 3137; assay: MIC agar dilution, VRE strain 26
Experimental: as §2, §3, §4, §5, §6, §7, §8, §9, §10

[5] = Staphylococcus aureus, MRSA, 22 h, 22 hrs, read-out: MIC
[6] = Staphylococcus aureus, MRSA, 48 h, 48 hrs, read-out: MIC

Structure (SMILES)	MIC (Listeria monocytogenes; 22 hrs, read-out: MIC) [µM]	MIC (Listeria monocytogenes; 48 hrs, read-out: MIC) [µM]	MIC [1, 5] [µM]	MIC [1, 6] [µM]	MIC ([2]; read-out: MIC) [µM]	MIC (MRSA FIN 54518 (E7); 22 hrs) [µM]	MIC (MRSA FIN 54518 (E7); 48 hrs) [µM]	MIC (MRSA EMRSA 15 1758/98; 22 hrs) [µM]	MIC (MRSA EMRSA 15 1758/98; 48 hrs) [µM]	MIC ([3]; 22 hrs) [µM]	MIC ([3]; 48 hrs) [µM]	MIC (MRSA EMRSA 15 1729/98; 22 hrs) [µM]	MIC (MRSA EMRSA 15 1729/98; 48 hrs) [µM]	MIC (MRSA NCTC 11939; 22 hrs) [µM]	MIC (MRSA NCTC 11939; 48 hrs) [µM]	MIC ([4]; 22 hrs) [µM]	MIC ([4]; 48 hrs) [µM]	further results
CCCCCCCCCCCCCCCCO [C0, 1-Hexadecanol, reference compound]	> 880	> 880	> 880	> 880	–	–	–	–	–	–	–	–	–	–	–	–	–	–
CCCCCCCCCCCCCOCCOCCOCCOCCOCCOCCO [C13E6, polyoxyethylene (6) tridecyl alcohol]	–	–	–	–	–	–	–	–	–	–	–	–	–	–	–	–	–	MIC ([2]; over the micro-organisms tested or some of them): less than 0.88 mmol/L; MIC (Listeria monocytogenes; 22 hrs): >880 µM; MIC (Listeria monocytogenes; 48 hrs): >880 µM; MIC ([1]; 22 hrs): 110 µM (≈ 51.1 µg/mL); MIC ([1]; 48 hrs): 110 µM (≈ 51.1 µg/mL)
CCCCCCCCCCCCOCCO [L1, Ethylene Glycol Monododecyl Ether]	440 (≈ 101 µg/mL)	880 (≈ 203 µg/mL)	440 (≈ 101 µg/mL)	440 (≈ 101 µg/mL)	≤ 440	220 (≈ 50.7 µg/mL)	440 (≈ 101 µg/mL)	220 (≈ 50.7 µg/mL)	220 (≈ 50.7 µg/mL)	440 (≈ 101 µg/mL)	440 (≈ 101 µg/mL)	220 (≈ 50.7 µg/mL)	220 (≈ 50.7 µg/mL)	220 (≈ 50.7 µg/mL)	220 (≈ 50.7 µg/mL)	440 (≈ 101 µg/mL)	440 (≈ 101 µg/mL)	–
CCCCCCCCCCCCOCCOCCO [L2, Diethylene Glycol Monododecyl Ether]	220 (≈ 60.4 µg/mL)	220 (≈ 60.4 µg/mL)	110 (≈ 30.2 µg/mL)	110 (≈ 30.2 µg/mL)	–	220 (≈ 60.4 µg/mL)	220 (≈ 60.4 µg/mL)	110 (≈ 30.2 µg/mL)	110 (≈ 30.2 µg/mL)	440 (≈ 121 µg/mL)	440 (≈ 121 µg/mL)	110 (≈ 30.2 µg/mL)	110 (≈ 30.2 µg/mL)	55 (≈ 15.1 µg/mL)	110 (≈ 30.2 µg/mL)	> 880	> 880	–
CCCCCCCCCCCCOCCOCCOCCO [L3, Triethylene Glycol Monododecyl Ether]	110 (≈ 35 µg/mL)	220 (≈ 70.1 µg/mL)	110 (≈ 35 µg/mL)	110 (≈ 35 µg/mL)	~110 (≈ 35 µg/mL)	220 (≈ 70.1 µg/mL)	440 (≈ 140 µg/mL)	55 (≈ 17.5 µg/mL)	110 (≈ 35 µg/mL)	880 (≈ 280 µg/mL)	> 880	110 (≈ 35 µg/mL)	110 (≈ 35 µg/mL)	55 (≈ 17.5 µg/mL)	55 (≈ 17.5 µg/mL)	880 (≈ 280 µg/mL)	> 880	–
CCCCCCCCCCCCOCCOCCOCCOCCO [L4, Tetraethylene Glycol Monododecyl Ether]	110 (≈ 39.9 µg/mL)	220 (≈ 79.8 µg/mL)	110 (≈ 39.9 µg/mL)	110 (≈ 39.9 µg/mL)	~110 (≈ 39.9 µg/mL)	220 (≈ 79.8 µg/mL)	440 (≈ 160 µg/mL)	55 (≈ 19.9 µg/mL)	55 (≈ 19.9 µg/mL)	440 (≈ 160 µg/mL)	880 (≈ 319 µg/mL)	55 (≈ 19.9 µg/mL)	55 (≈ 19.9 µg/mL)	55 (≈ 19.9 µg/mL)	55 (≈ 19.9 µg/mL)	880 (≈ 319 µg/mL)	> 880	–
CCCCCCCCCCCCOCCOCCOCCOCCOCCO [L5, Pentaethylene Glycol Monododecyl Ether]	110 (≈ 44.7 µg/mL)	220 (≈ 89.5 µg/mL)	110 (≈ 44.7 µg/mL)	220 (≈ 89.5 µg/mL)	~110 (≈ 44.7 µg/mL)	440 (≈ 179 µg/mL)	440 (≈ 179 µg/mL)	110 (≈ 44.7 µg/mL)	110 (≈ 44.7 µg/mL)	220 (≈ 89.5 µg/mL)	220 (≈ 89.5 µg/mL)	110 (≈ 44.7 µg/mL)	110 (≈ 44.7 µg/mL)	110 (≈ 44.7 µg/mL)	110 (≈ 44.7 µg/mL)	440 (≈ 179 µg/mL)	> 880	–
CCCCCCCCCCCCOCCOCCOCCOCCOCCOCCO [L6, Hexaethylene Glycol Monododecyl Ether]	110 (≈ 49.6 µg/mL)	110 (≈ 49.6 µg/mL)	110 (≈ 49.6 µg/mL)	110 (≈ 49.6 µg/mL)	~110 (≈ 49.6 µg/mL)	> 440	> 440	110 (≈ 49.6 µg/mL)	110 (≈ 49.6 µg/mL)	440 (≈ 198 µg/mL)	> 880	110 (≈ 49.6 µg/mL)	110 (≈ 49.6 µg/mL)	110 (≈ 49.6 µg/mL)	110 (≈ 49.6 µg/mL)	880 (≈ 397 µg/mL)	> 880	–
CCCCCCCCCCCCOCCOCCOCCOCCOCCOCCOCCO [L7, Heptaethylene Glycol Monododecyl Ether]	220 (≈ 109 µg/mL)	220 (≈ 109 µg/mL)	–	–	–	> 440	> 440	220 (≈ 109 µg/mL)	220 (≈ 109 µg/mL)	> 880	> 880	440 (≈ 218 µg/mL)	440 (≈ 218 µg/mL)	110 (≈ 54.4 µg/mL)	110 (≈ 54.4 µg/mL)	> 880	> 880	MIC ([1]; 22 hrs, read-out: MIC): 220 µM (≈ 109 µg/mL); MIC ([1]; 48 hrs, read-out: MIC): 220 µM (≈ 109 µg/mL)
CCCCCCCCCCCCOCCOCCOCCOCCOCCOCCOCCOCCO [L8, Octaethylene Glycol Monododecyl Ether]	440 (≈ 237 µg/mL)	> 880	220 (≈ 119 µg/mL)	440 (≈ 237 µg/mL)	–	> 440	> 440	> 440	> 440	> 880	> 880	> 440	> 440	220 (≈ 119 µg/mL)	220 (≈ 119 µg/mL)	> 880	> 880	–
